According to US6238693A, “Transdermal administration of fenoldopam” (priority 1999, dated 2001):
Counter-ions that a name gives are not always drawn. One block for each compound: values may come before it.

Columns and labels:
[1] = exposure to the atmosphere during storage; cited from earlier work
[2] = test system: dopamine type-1 receptors; details: cited from earlier work
guinea pigs [3] = details: guinea pig, in vivo
Description: (§1) Dermal sensitization studies in guinea pigs were done to assess the contact sensitization of fenoldopam mesylate and of R-fenoldopam mesylate, the active enantiomer, when administered topically and intradermally. Each of the drugs, the fenoldopam mesylate and the R-fenoldopam mesylate, were administered to the animals from a 50:50 mixture of propylene glycol/water, at drug concentrations of 40 mg/mL, 30 mg/mL, 20 mg/mL, and 10 mg/mL.
As described in Example 2, sixteen animals were divided into 4 groups of 4 animals each. The first group of 4 animals (Group 1) were treated with a topical application of fenoldopam mesylate at the four concentrations. Each animal, after having the hair removed from its back and sides, received each of the concentrations applied at four separate sites. The animals in Group 2 were similarly treated, except with R-fenoldopam. After 24 hours of exposure to the test material, the application site was scored on a four-point scale for dermal reactions (0=no reaction, 1=moderate mild redness, 2=moderate and diffuse redness, 3=intense redness and swelling). […]
For the topical application, the test materials were placed on 2 cm×2 cm pieced of filter paper to saturation and allowed to remain in place on the animal for 24 hours. […] The sites were scored on the following four-point scale for dermal reactions at approximately 24 and 48 hours after patch removal: […]

guinea pigs [4] = details: guinea pig, in vivo; remark: listed apart in the source
Description: as §1
Dermal sensitization was also evaluated following intradermal injection of fenoldopam mesylate and R-fenoldopam at the same concentrations used in the topical screening. As described in Example 2, four animals (Group 3) were treated with […] injections of fenoldopam mesylate at four injection sites, one for each of the four concentrations. Four animals in Group 4 were similarly injected with R-fenoldopam at the four concentrations. 24 hours after injection, the injection sites were scored for dermal reaction on the 4-point scale.
Guinea pigs (strain: CRl (HA)BR) were obtained from Charles River Laboratories. The animals were young adults, weighing between 350-550 g at the start of the study. Each animals was housed individually and fed ad libitum a certified
A stock solution of 50% propylene glycol/50% sterile water mixture was prepared as the control material and for preparation of the test materials.
On each day of testing, a 40 mg/mL fenoldopam mesylate or R-fenoldopam mesylate in 50% propylene glycol/50% sterile water solution was prepared using the stock solution. The 40 mg/mL drug solution was diluted with the stock solution to prepare solutions of 30 mg/mL, 20 mg/mL and 10 mg/mL of both the racemate and the enantiomer. All test materials were used within 8 hours of preparation and were stored at room temperature until administered.
Sixteen guinea pigs were divided into the following groups:
For the intradermal injection, the four animals in Group 3 were treated with intradermal injection of fenoldopam mesylate and the four animals in Group 4 were treated with intradermal injections of R-fenoldopam mesylate. The test materials were administered at concentrations of 40 mg/mL, 30 mg/mL, 20 mg/mL and 10 mg/mL by injecting each at a volume of 0.1 mL into a separate site on the shaved back of the test animal. The areas of intradermal injections were evaluated for dermal irritation on the four-point scale given above at 24 and 48 hours after injection. The test sites were clipped with an electric clipper before the first reading.

guinea pigs [5] = assay: Dermal sensitization challenge study (definitive study); format: in vivo, guinea pig; details: 40 mg/mL challenge
Description: Based on the results from this initial phase of dermal sensitization studies, a definitive challenge dermal sensitivity study was conducted, as described in Example 3. Briefly, thirty animals were divided into three test groups of 10 animals each. The animals in Group 5 were treated with fenoldopam mesylate, the animals in Group 6 with R-fenoldopam mesylate and the animals in Group 7 were treated with vehicles alone as a control.
All animals were initially treated with intradermal injections of the test compound, e.g., fenoldopam mesylate (Group 5) or R-fenoldopam (Group 6), in a 1:1 mixture of propylene glycol:water or in a mixture of Freund's Complete Adjuvent (FCA) in propylene glycol:water. The drug concentration in these vehicle mixtures was 40 mg/mL (see Table 4 in Example 3). The animals were also treated with FCA in water alone. The animals in Group 7 received the same three formulations, except for the absence of fenoldopam.
One week after the intradermal injections, each of the test formulations was applied topically to the injection site. The topical application, in the form of a saturated patch of filter paper, was left in place for 48 hours.
Two weeks after the topical application, the animals in groups 5 and 6 received a challenge dose of 40 mg/mL of the test compound in PG:water, applied topically to a naive site. On the opposing side of the animal, the vehicle alone (PG:water) was applied. The animals in Group 7 received the vehicle alone on both sides. 24 hours after the topical challenge dose, the site was scored for dermal sensitization using the four-point scale given above.
Thirty guinea pigs were obtained and cared for as set forth in Example 2.
On Day 1 of the study, an area approximately 4 cm×6 cm was clipped with an electric clipper along the midline over the shoulder region of each animal in the test and control groups. Two rows of three 0.1 mL intradermal injections were made within the boundaries of a 2 cm×4 cm area, one row on each side of the midline. The injections in each row were as follows: at the anterior site, the animal received 0.1 mL of the prepared Freund's Complete Adjuvent (FCA) solution (Groups 5, 6 and 7); at the medial site, the animals received 0.1 mL of the respective prepared test material (Groups 5 and 6) or vehicle control (Group 7); and at the posterior site, the animals received 0.1 mL of the respective test material (drug in PG:water) further mixed with FCA solution (Groups 5 and 6) or a 1:1 dilution of the PG:water vehicle control in FCA.
On Day 7, the area of intradermal injection on each animal in Groups 5, 6 and 7 was clipped free of hair with an electric clipper. The clipped area was treated with 10% w/w sodium lauryl sulfate in petrolatum. […]

[6] = cited from earlier work
[7] = cited from earlier work; remark: listed apart in the source
[8] = intravenous infusion, therapeutic dosages

Structure (SMILES): Oc1ccc(C2CNCCc3c2cc(O)c(O)c3Cl)cc1 (stereo not shown) [fenoldopam free base]
- oxidation [1]: readily oxidized

Structure (SMILES): Oc1ccc([C@@H]2CNCCc3c2cc(O)c(O)c3Cl)cc1 [S-fenoldopam]
- biological activity of enantiomer [2]: relatively inactive

- Dermal Reactions, topical application (guinea pigs [3]): 0
- Dermal Reactions, intradermal injection (guinea pigs [4]): 2
- appearance of injection site (footnote) (guinea pigs [4]): Whitish in color
Structure (SMILES): Oc1ccc([C@H]2CNCCc3c2cc(O)c(O)c3Cl)cc1 [R-fenoldopam mesylate]
- animals scored as having "scattered mild redness" (guinea pigs [5]): 5 of the 10 animals
- dermal sensitization (summary) (guinea pigs [5]): moderate dermal sensitization

Structure (SMILES): Oc1ccc(C2CNCCc3c2cc(O)c(O)c3Cl)cc1 (racemic) [racemic fenoldopam]
- average clearance (CL) ([6]; human, in vivo, iv): 2.6 L/min
- half-life (t1/2) ([6]; human, in vivo, iv): 4.6 min

Structure (SMILES): Oc1ccc([C@H]2CNCCc3c2cc(O)c(O)c3Cl)cc1 [R-fenoldopam]
- biological activity of enantiomer [2]: the activity of the drug is due to the R-enantiomer

Structure (SMILES): Oc1ccc(C2CNCCc3c2cc(O)c(O)c3Cl)cc1 (stereo not drawn) [fenoldopam, 6-chloro-2,3,4,5-tetrahydro-l-(4-hydroxyphenyl)-1H-3-benzazepine-7,8-diol]
- time to achieve dose-dependent steady-state plasma concentration ([6]; intravenous, about 0.01-1.6 μg/kg/min for up to 48 hours): about 20 minutes
- first-pass metabolism ([6]; via sulfation and glucuronidation): high first-pass metabolism
- blood pressure ([7]; in vivo): decrease in blood pressure
- duration of antihypertensive and renal effects ([7]; in vivo): short lasting
- renal vasodilation, diuresis and natriuresis ([7]; in vivo): renal vasodilation, diuresis and natriuresis
- creatinine clearance, urinary flow and excretion of sodium and potassium [7, 8]: increasing creatinine clearance, urinary flow and excretion of sodium and potassium
- glomerular filtration rate [7, 8]: maintaining glomerular filtration rate
- renal blood flow [7, 8]: increases renal blood flow
- renal vascular resistance [7, 8]: decreases renal vascular resistance
- dopamine agonism / peripheral vasodilation ([2]; via stimulation of dopamine type-1 receptors): dopamine agonist that causes peripheral vasodilation

- Dermal Reactions, topical application (guinea pigs [3]): 0
- Dermal Reactions, intradermal injection (guinea pigs [4]): 2
- appearance of injection site (footnote) (guinea pigs [4]): Whitish in color
Structure (SMILES): Oc1ccc(C2CNCCc3c2cc(O)c(O)c3Cl)cc1 (racemic) [fenoldopam mesylate]
- animals scored as having "scattered mild redness" (guinea pigs [5]): 6 of the 10 animals
- dermal sensitization (summary) (guinea pigs [5]): moderate dermal sensitization
